IC50 data for 28 compounds are collected here from patent publication US20090209577A1, “Novel Triazolopyridine Compounds” (PFIZER INC., priority 2004, published 2009).

The structures appear in SMILES notation. Structures can show the parent of a compound that is named as a salt.

In the assay the target is T1, human p38 kinase alpha (Homo sapiens, UniProt Q16539).
T1 construct: The coding region of the human p38a cDNA was obtained by PCR-amplification from RNA isolated from the human monocyte cell line THP.1; made in house; host or cells: E. coli DH10B
T1 sequence (Q16539 whole entry): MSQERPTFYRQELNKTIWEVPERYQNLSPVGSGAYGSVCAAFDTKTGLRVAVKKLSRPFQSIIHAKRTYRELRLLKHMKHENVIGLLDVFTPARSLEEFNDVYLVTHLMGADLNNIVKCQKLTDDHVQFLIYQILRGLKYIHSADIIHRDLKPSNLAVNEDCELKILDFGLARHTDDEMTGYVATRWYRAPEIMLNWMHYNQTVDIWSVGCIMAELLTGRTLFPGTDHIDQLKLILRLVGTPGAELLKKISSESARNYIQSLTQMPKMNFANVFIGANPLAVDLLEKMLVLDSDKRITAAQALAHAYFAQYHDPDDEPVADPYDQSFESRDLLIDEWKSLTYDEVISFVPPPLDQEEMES
The experiment in a line: p38 kinase in vitro assay (PHAS-I / 32P-ATP format or EGFRP / 33P-ATP format). The conditions noted are these: activated human p38 kinase alpha, 50 μM unlabeled ATP; two assay formats, table does not say which. Format: biochemical. As for the experimental part: The ability of compounds to inhibit human p38 kinase alpha was evaluated using two in vitro assay methods. In the first method, activated human p38 kinase alpha phosphorylates a biotinylated substrate, PHAS-I (phosphorylated heat and acid stable protein-insulin inducible), in the presence of gamma ^32P-ATP (^32P-ATP). PHAS-I was biotinylated prior to the assay and provides a means of capturing the substrate, which is phosphorylated during the assay. p38 Kinase was activated by MKK6. Compounds were tested in 10 fold serial dilutions over the range of 100 μM to 0.001 μM using 1% DMSO. Each concentration of inhibitor was tested in triplicate.
All reactions were carried out in 96 well polypropylene plates. Each reaction well contained 25 mM HEPES pH 7.5, 10 mM magnesium acetate and 50 μM unlabeled ATP. Activation of p38 was required to achieve sufficient signal in the assay. Biotinylated PHAS-1 was used at 1-2 μg per 50 μl reaction volume, with a final concentration of 1.5 μM. Activated human p38 kinase alpha was used at 1 μg per 50 μl reaction volume representing a final concentration of 0.3 μM. Gamma ^32P-ATP was used to follow the phosphorylation of PHAS-1. ^32P-ATP has a specific activity of 3000 Ci/mmol and was used at 1.2 μCi per 50 μl reaction volume. The reaction proceeded either for one hour or overnight at 30° C.
Following incubation, 20 μl of reaction mixture was transferred to a high capacity streptavidin coated filter plate (SAM-streptavidin-matrix, Promega) prewetted with phosphate buffered saline. The transferred reaction mix was allowed to contact the streptavidin membrane of the Promega plate for 1-2 minutes. Following capture of biotinylated PHAS-1 with ^32P incorporated, each well was washed to remove unincorporated ^32P-ATP three times with 2M NaCl, three washes of 2M NaCl with 1% phosphoric, three washes of distilled water and finally a single wash of 95% ethanol. Filter plates were air-dried and 20 μl of scintillant was added. The plates were sealed and counted.
A second assay format was also employed that is based on p38 kinase alpha induced phosphorylation of EGFRP (epidermal growth factor receptor peptide, a 21 mer) in the presence ^33P-ATP. Compounds were tested in 10 fold serial dilutions over the range of 100 μM to 0.001 μM in 1% DMSO. Each concentration of inhibitor was tested in triplicate. Compounds were evaluated in 50 μl reaction volumes in the presence of 25 mM Hepes pH 7.5, 10 mM magnesium acetate, 4% glycerol, 0.4% bovine serum albumin, 0.4 mM DTT, 50 μM unlabeled ATP, 25 μg EGFRP (200 μM), and 0.05 μCi ^33P-ATP. Reactions were initiated by addition of 0.09 μg of activated, purified human GST-p38 kinase alpha. Activation was carried out using GST-MKK6 (5:1, p38:MKK6) for one hour at 30° C. in the presence of 50 μM ATP. Following incubation for 60 minutes at room temperature, the reaction was stopped by addition of 150 μl of AG 1×8 resin in 900 mM sodium formate buffer, pH 3.0 (1 volume resin to 2 volumes buffer). The mixture was mixed three times with pipetting and the resin was allowed to settle. A total of 50 μl of clarified solution head volume was transferred from the reaction wells to Microlite-2 plates. 150 μl of Microscint 40 was then added to each well of the Microlite plate, and the plate was sealed, mixed, and counted.
The above protocol assays were used to determine the IC50 values for compounds in Examples 1-71 above.
Regarding `CC(C)c1nnc2ccc([C@@H]3C[C@@H]3c3ccc(F)cc3F)cn12` (racemic) [Example 3, Racemic 6-[2-(2,4-difluorophenyl)cyclopropyl]-3-isopropyl[1,2,4]triazolo[4,3-a]pyridine], the concentration for half-maximal inhibition (IC50) was 16900 nM.

Compound `COC(=O)c1ccc(C)c(-c2nnc3n2CC(CCc2ccc(F)cc2F)CC3)c1` (racemic) [Example 18, racemic methyl 3-{6-[2-(2,4-difluorophenyl)ethyl]-5,6,7,8-tetrahydro[1,2,4]triazolo[4,3-a]pyridin-3-yl}-4-methylbenzoate] yielded a half-inhibitory concentration (IC50) of 107 nM.

In turn, `Cc1ccc(C(=O)O)cc1-c1nnc2n1CC(CCc1ccc(F)cc1F)CC2` (racemic) [Example 19, racemic 3-{6-[2-(2,4-difluorophenyl)ethyl]-5,6,7,8-tetrahydro[1,2,4]triazolo[4,3-a]pyridin-3-yl}-4-methylbenzoic acid] yielded an IC50 of 7550 nM.

The compound `Cc1ccc(C(N)=O)cc1-c1nnc2n1CC(CCc1ccc(F)cc1F)CC2` (racemic) [Example 20, racemic 3-{6-[2-(2,4-difluorophenyl)ethyl]-5,6,7,8-tetrahydro[1,2,4]triazolo[4,3-a]pyridin-3-yl}-4-methylbenzamide] showed a 50% inhibitory concentration (IC50) of 1270 nM.

Consider `OCC(O)c1ccc(-c2nnc3ccc(Sc4ccc(F)cc4F)cn23)cc1` (racemic) [Example 31, racemic-1-(4-{6-[(2,4-difluorophenyl)thio][1,2,4]triazolo[4,3-a]pyridin-3-yl}phenyl)ethane-1,2-diol hydrochloride], for which the IC50 amounted to 5.3 nM.

Compound `CC(C)c1nnc2ccc(Cc3ccc(F)cc3F)cn12` [8 (step 1), 6-(2,4-difluorobenzyl)-3-isopropyl[1,2,4]triazolo[4,3-a]pyridine] displayed an IC50 of 26.1 nM. Against the preceding compound, the IC50 is about 4.9-fold higher.

The compound `CC(C)(C)c1nnc2ccc(C(O)c3ccc(F)cc3F)cn12` (stereo not shown) [15 (step 1), (3-tert-butyl[1,2,4]triazolo[4,3-a]pyridin-6-yl)(2,4-difluorophenyl)methanol] showed an IC50 of 319 nM.

`C=CCC(C)(C)c1nnc2ccc(Sc3ccc(F)cc3F)cn12` [33 (step 2), 6-[(2,4-difluorophenyl)thio]-3-(1,1-dimethylbut-3-enyl)[1,2,4]triazolo[4,3-a]pyridine hydrochloride] yielded an IC50 of 16.3 nM.

The compound `CC1(C)OCC(CC(C)(C)c2nnc3ccc(Sc4ccc(F)cc4F)cn23)O1` (stereo not shown) [33 (step 3), 6-[(2,4-difluorophenyl)thio]-3-[2-(2,2-dimethyl-1,3-dioxolan-4-yl)-1,1-dimethylethyl][1,2,4]triazolo[4,3-a]pyridine hydrochloride] yielded an IC50 of 698 nM.

`CC(C)c1nnc2ccc(Sc3ccc(F)cc3F)cn12` [34 (step 1), 6-[(2,4-difluorophenyl)thio]-3-isopropyl[1,2,4]triazolo[4,3-a]pyridine hydrochloride]: the midpoint of inhibition, the IC50, lay at 79.3 nM.

`COC(=O)c1ccc(C)c(-c2nnc3ccc(Br)cn23)c1` [41 (step 2), methyl 3-(6-bromo[1,2,4]triazolo[4,3-a]pyridin-3-yl)-4-methylbenzoate] had a 50% inhibitory concentration (IC50) of 12900 nM. This IC50 is about 160-fold higher than that of the compound before.

For `COC(=O)c1ccc(C)c(-c2nnc3ccc(Sc4ccc(F)cc4F)cn23)c1` [41 (step 3), methyl 3-{6-[(2,4-difluorophenyl)thio][1,2,4]triazolo[4,3-a]pyridin-3-yl}-4-methylbenzoate], the IC50 is 7.8 nM.

In turn, `Cc1ccc(C(=O)O)cc1-c1nnc2ccc(Sc3ccc(F)cc3F)cn12` [41 (step 4), 3-{6-[(2,4-difluorophenyl)thio][1,2,4]triazolo[4,3-a]pyridin-3-yl}-4-methylbenzoic acid hydrochloride] registered an IC50 of 2920 nM.

`CC(=O)OCC(=O)N1CCC(c2nnc3ccc(Sc4ccc(F)cc4F)cn23)CC1` [44 (step 4), 2-(4-{6-[(2,4-difluorophenyl)thio][1,2,4]triazolo[4,3-a]pyridin-3-yl}piperidin-1-yl)-2-oxoethyl acetate hydrochloride]: half-maximal inhibition (IC50) was put at 367 nM.

In the case of `Cc1cc(Br)ccc1-c1nnc2ccc(Sc3ccc(F)cc3F)cn12` [45 (step 2), 3 (4-bromo-2-methylphenyl)-6-[(2,4-difluorophenyl)thio][1,2,4]triazolo[4,3-a]pyridine hydrochloride], the IC50 was determined as 141 nM. Compared with the last compound, the IC50 is about 2.6-fold lower.

`C=Cc1ccc(-c2nnc3ccc(Sc4ccc(F)cc4F)cn23)c(C)c1` [45 (step 3), 6-[(2,4-difluorophenyl)thio]-3-(2-methyl-4-vinylphenyl)[1,2,4]triazolo[4,3-a]pyridine hydrochloride] returned a 50% inhibitory concentration (IC50) of 106 nM.

As for `Cc1cc(C(O)CO)ccc1-c1nnc2ccc(Sc3ccc(F)cc3F)cn12` (stereo not shown) [45 (step 4), 1-(4-{6-[(2,4-difluorophenyl)thio][1,2,4]triazolo[4,3-a]pyridin-3-yl}-3-methylphenyl)ethane-1,2-diol hydrochloride], the half-inhibitory concentration (IC50) came to 28.3 nM. This IC50 lies about 3.7-fold lower than the previous one.

Compound `C=Cc1ccc(-c2nnc3ccc(Cc4ccc(F)cc4F)cn23)cc1` [62 (step 2), 6-(2,4-difluorobenzyl)-3-(4-vinylphenyl)[1,2,4]triazolo[4,3-a]pyridine] had a 50% inhibitory concentration (IC50) of 2290 nM.

Compound `CC(C)c1nnc2ccc(/C=C\c3ccc(F)cc3F)cn12` [Example 1, 6-[(Z)-2-(2,4-difluorophenyl)vinyl]-3-isopropyl[1,2,4]triazolo[4,3-a]pyridine] came in with a half-inhibitory concentration (IC50) of 535 nM.

For the compound `CC(C)c1nnc2ccc(CCc3ccc(F)cc3F)cn12` [Example 2, 6-[2-(2,4-difluorophenyl)ethyl]-3-isopropyl[1,2,4]triazolo[4,3-a]pyridine], the IC50 amounted to 85 nM. This IC50 lies about 6.3-fold lower than the previous one.

In turn, `CC(=O)c1ccc2nnc(C(C)C)n2c1` [Example 4, 1-(3-isopropyl[1,2,4]triazolo[4,3-a]pyridin-6-yl)ethanone] came in with an IC50 of more than 100000 nM.

As for `CC(C)c1nnc2ccc(C(=O)Cc3ccc(F)cc3F)cn12` [Example 5, 2-(2,4-difluorophenyl)-1-(3-isopropyl[1,2,4]triazolo[4,3-a]pyridin-6-yl)ethanone], the half-maximal inhibitory concentration (IC50) is 7370 nM.

The compound `CC(C)c1nnc2ccc(COCc3ccc(F)cc3F)cn12` [Example 6, 6-{[(2,4-difluorobenzyl)oxy]methyl}-3-isopropyl[1,2,4]triazolo[4,3-a]pyridine] displayed an IC50 of more than 100000 nM.

`CC(C)c1nnc2ccc(-c3cnn(Cc4ccccc4)c3)cn12` [Example 7, 6-(1-benzyl-1H-pyrazol-4-yl)-3-isopropyl[1,2,4]triazolo[4,3-a]pyridine] registered an IC50 of more than 100000 nM.

Consider `CC(C)c1nnc2n1CC(Cc1ccc(F)cc1F)CC2` (stereo not shown) [Example 8, 6-(2,4-difluorobenzyl)-3-isopropyl-5,6,7,8-tetrahydro[1,2,4]triazolo[4,3-a]pyridine hydrochloride], for which the half-inhibitory concentration (IC50) amounted to 5590 nM.

For the compound `CC(C)c1nnc2ccc(Cc3ccc(Cl)nc3)cn12` [Example 9, 6-[(6-chloropyridin-3-yl)methyl]-3-isopropyl[1,2,4]triazolo[4,3-a]pyridine], 53300 nM corresponded to half-maximal inhibition (IC50).

In the case of `CC(C)(C)c1nnc2ccc(Cc3ccc(Cl)nc3)cn12` [Example 10, 3-tert-butyl-6-[(6-chloropyridin-3-yl)methyl][1,2,4]triazolo[4,3-a]pyridine], the half-maximal inhibitory concentration (IC50) stood at 21600 nM. This IC50 lies about 2.5-fold lower than the previous one.

In turn, `CC(C)c1nnc2ccc(C(=O)Nc3ccc(F)cc3F)cn12` [Example 11, N-(2,4-difluorophenyl)-3-isopropyl[1,2,4]triazolo[4,3-a]pyridine-6-carboxamide] showed an IC50 of more than 100000 nM.

Broadly, the IC50 is the concentration needed to halve the response being measured.
